# Experimental data taken from the NIST ThermoML archive (doi:10.1016/j.fluid.2013.10.022).
# ± gives the expanded uncertainty stated by the source.
# Tests used:
# [1] = refractive index (Na D-line) (dimensionless); conditions: 298.2 K; 101.33 kPa; Liquid; Standard Abbe refractometry
# [2] = 298.2 K; 101.33 kPa; Liquid; Vibrating tube method
refractive index [1],mass density [2],Compound
1.3324 ± 0.0008,,O [water]
1.4293 ± 0.0008,830.22 ± 0.24 kg/m3,CCCCC(CC)CO (configuration not stated) [2-ethyl-1-hexanol]
1.3977 ± 0.0008,952.68 ± 0.23 kg/m3,CCCC(=O)O [butanoic acid]
1.4276 ± 0.0008,821.69 ± 0.24 kg/m3,CCCCCCCCO [octan-1-ol]
